Measured values published in EP1247803A2, “Indolinone compounds suitable for modulation of protein kinases” (Sugen, Inc., priority 1996, dated 1998).

Molecular target: T1, EGFR (Homo sapiens, UniProt P00533)
T1 construct: Add 7 ug A431 cell lysate per well (EGFR source); endogenous in cells; host or cells: A431
Test: EGFR ELISA assay (in vitro kinase activity, EGFR captured from A431 cell lysate)
Format: biochemical
Set-up: concentration or dose not given beside the values
Method in brief: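 Receptor autophosphorylation was read by ELISA: anti-phosphotyrosine serum and an HRP-linked secondary with ABTS substrate, absorbance at 410 nm (reference 630 nm). The reaction ran 5 min with 3 µM ATP and 5 mM MnCl2 and was quenched by 20 mM EDTA. Compounds were first incubated 30 min with antibody-captured EGFR from A431 cell lysate.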

T1 sequence (P00533 25-1210): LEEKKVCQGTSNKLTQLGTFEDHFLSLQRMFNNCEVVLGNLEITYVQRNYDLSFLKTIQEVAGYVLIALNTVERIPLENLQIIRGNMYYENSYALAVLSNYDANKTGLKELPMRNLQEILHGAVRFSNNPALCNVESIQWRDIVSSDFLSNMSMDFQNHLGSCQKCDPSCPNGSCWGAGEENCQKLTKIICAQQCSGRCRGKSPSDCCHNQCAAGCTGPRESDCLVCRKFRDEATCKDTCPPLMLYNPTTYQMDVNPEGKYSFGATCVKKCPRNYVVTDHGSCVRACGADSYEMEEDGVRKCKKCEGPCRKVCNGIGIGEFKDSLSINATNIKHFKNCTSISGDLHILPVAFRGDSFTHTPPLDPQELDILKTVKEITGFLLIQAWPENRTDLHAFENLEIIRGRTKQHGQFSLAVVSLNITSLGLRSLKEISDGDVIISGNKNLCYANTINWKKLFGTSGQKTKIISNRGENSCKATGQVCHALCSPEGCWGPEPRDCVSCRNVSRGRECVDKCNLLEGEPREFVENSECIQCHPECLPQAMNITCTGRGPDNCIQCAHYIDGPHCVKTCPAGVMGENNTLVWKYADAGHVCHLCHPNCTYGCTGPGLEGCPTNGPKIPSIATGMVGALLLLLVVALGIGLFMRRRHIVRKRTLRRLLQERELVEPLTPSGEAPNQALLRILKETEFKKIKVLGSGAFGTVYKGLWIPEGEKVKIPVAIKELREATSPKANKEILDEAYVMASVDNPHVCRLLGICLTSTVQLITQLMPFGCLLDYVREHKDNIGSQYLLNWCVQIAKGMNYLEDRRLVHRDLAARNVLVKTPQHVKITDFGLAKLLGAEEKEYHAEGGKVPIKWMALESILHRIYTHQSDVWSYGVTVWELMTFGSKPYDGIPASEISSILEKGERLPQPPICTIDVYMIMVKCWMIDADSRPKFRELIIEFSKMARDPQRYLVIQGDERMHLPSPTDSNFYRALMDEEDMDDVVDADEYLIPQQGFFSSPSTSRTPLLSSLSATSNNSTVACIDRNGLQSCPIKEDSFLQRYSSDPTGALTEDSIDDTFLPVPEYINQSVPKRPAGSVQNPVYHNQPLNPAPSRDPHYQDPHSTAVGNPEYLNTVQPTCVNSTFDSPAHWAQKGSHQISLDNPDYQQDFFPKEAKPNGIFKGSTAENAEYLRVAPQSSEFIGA

Row | Compound | Biochem EGFR %Inhibition [%]
1 | O=C1Nc2ccc(CCCl)cc2C1=Cc1ccccc1Sc1ccc(Cl)cc1 [10727/G05] | 11.2
2 | CNS(=O)(=O)c1ccc2c(c1)C(=Cc1c(OC)cccc1OC)C(=O)N2 [10728/D03] | 10.8
3 | N#Cc1cccc(C=C2C(=O)Nc3ccc(S(=O)(=O)Nc4ccc(C(F)(F)F)cc4)cc32)c1 [10727/E08] | 25.6
4 | COc1cccc(C=C2C(=O)Nc3ccc(S(=O)(=O)Nc4ccc(C(F)(F)F)cc4)cc32)c1OC [10727/E11] | -33.4
5 | Cc1c(Br)ccc2c1C(=Cc1cc(C(F)(F)F)ccc1F)C(=O)N2 [10728/C08] | 17.5
6 | O=C1Nc2ccc(CCCl)cc2C1=Cc1coc2ccccc2c1=O [10727/G07] | 5.4
7 | O=C1Nc2ccc(CCCl)cc2C1=Cc1cc(O)ccc1O [10727/G10] | 85.1
8 | O=C1Nc2c(Br)cc(Br)cc2C1=Cc1cc(C(F)(F)F)ccc1F [10728/A08] | 24.1
9 | O=C1Nc2ccc(CCCl)cc2C1=Cc1cc(Cl)cc(Br)c1O [10727/G04] | 80.6
10 | N#Cc1cccc(C=C2C(=O)Nc3ccc(CCCl)cc32)c1 [10727/G08] | -19.6
11 | CNS(=O)(=O)c1ccc2c(c1)C(=Cc1ccc(N(C)C)cc1OC)C(=O)N2 [10728/D05] | 12.7
12 | O=C1Nc2c(Br)cc(Br)cc2C1=Cc1ccc2ccccc2c1O [10718/A04] | 27.3
13 | COc1cccc(OC)c1C=C1C(=O)Nc2c(Br)cc(Br)cc21 [10728/A03] | -25.8
14 | CNS(=O)(=O)c1ccc2c(c1)C(=Cc1cc(O)ccc1O)C(=O)N2 [10727/D10] | 86.2
15 | COc1ccc(OC)c(C=C2C(=O)Nc3ccc(Br)c(C)c32)c1 [10728/C02] | -35.4
16 | CCOC(=O)CCc1c(C(=O)OCC)[nH]c(C=C2C(=O)Nc3c(Br)cc(Br)cc32)c1CC(=O)OCC [10718/A05] | -6.9
17 | CNS(=O)(=O)c1ccc2c(c1)C(=Cc1ccc(C#N)cc1)C(=O)N2 [10727/D09] | 15.1
18 | CNS(=O)(=O)c1ccc2c(c1)C(=Cc1cc3c(cc1Cl)OCO3)C(=O)N2 [10727/D06] | 8.6
19 | COc1cc(C=C2C(=O)Nc3c(Br)cc(Br)cc32)cc2c1OCO2 [10728/A11] | -0.6
20 | CNS(=O)(=O)c1ccc2c(c1)C(=Cc1ccc3c(c1)Cc1ccccc1-3)C(=O)N2 [10728/D06] | 5.8
21 | COc1cccc(C=C2C(=O)Nc3ccc(CCCl)cc32)c1OC [10727/G11] | -3.5
22 | CCOC(=O)c1cc(C=C2C(=O)Nc3c(Br)cc(Br)cc32)oc1C [10718/A06] | 19.4
23 | CCc1cc(CC)c(C=C2C(=O)Nc3ccc(S(=O)(=O)N4CCOCC4)cc32)[nH]1 [10727/F03] | 36.8
24 | CNS(=O)(=O)c1ccc2c(c1)C(=Cc1cccc(C#N)c1)C(=O)N2 [10727/D08] | -0.5
25 | COc1ccc(OC)c(C=C2C(=O)Nc3ccc(I)cc32)c1 [10728/B02] | -10.5
26 | N#Cc1ccc(C=C2C(=O)Nc3ccc(CCCl)cc32)cc1 [10727/G09] | -9.7
27 | N#Cc1ccc(C=C2C(=O)Nc3ccc(S(=O)(=O)Nc4ccc(C(F)(F)F)cc4)cc32)cc1 [10727/E09] | 15.1
28 | COc1cc(C=C2C(=O)Nc3ccc(I)cc32)cc(OC)c1 [10728/B04] | -2.0
